In DBAASP:
Values after ≈ are worked out from the molar mass of the structure shown. Values joined by “and” are separate entries in the source; they are usually repeats but may differ in a detail not shown here. Equal entries are not always repeated. One block for each compound: values may come before it.

Experiments:
Assay in all cases: ≥ marks a high value that may be exact or a test limit, other limits are often not marked, values filed in µg/mL are converted to µM
[1] = system: Candida albicans NCYC 1467
[2] = system: Enterococcus faecalis NCTC 12697
[3] = system: Escherichia coli NCTC 10418
[4] = system: Klebsiella pneumoniae ATCC 43816
[5] = system: Pseudomonas aeruginosa ATCC 27853
[6] = system: Staphylococcus aureus ATCC 12493
[7] = system: Staphylococcus aureus NCTC 10788
Staphylococcus aureus = system: Staphylococcus aureus
[8] = system: Acinetobacter baumannii ATCC 19606
Acinetobacter junii RT-4 = system: Acinetobacter junii RT-4
Bacillus megaterium Bm11 = system: Bacillus megaterium Bm11
[9] = system: Candida albicans ATCC 10231
[10] = system: Enterococcus faecalis ATCC 29212
[11] = system: Escherichia coli ATCC 25922
Escherichia coli D21 = system: Escherichia coli D21
[12] = system: Pseudomonas aeruginosa ATCC 15692
[13] = system: Pseudomonas syringae pv. tabaci 1918NCPPB
Saccharomyces cerevisiae = system: Saccharomyces cerevisiae
[14] = system: Schizosaccharomyces pombe
[15] = system: Staphylococcus aureus ATCC 25923
[16] = system: Staphylococcus aureus Cowan 1
Staphylococcus capitis 1 = system: Staphylococcus capitis 1
[17] = system: Staphylococcus epidermidis ATCC 12228
[18] = system: Streptococcus pyogenes ATCC 21547
[19] = system: Yersinia pseudotuberculosis YPIII
[20] = system: Bacillus subtilis ATCC 9372
[21] = system: Escherichia coli ATCC 8739
[22] = system: Proteus vulgaris NCTC 4635
[23] = system: Pseudomonas aeruginosa ATCC 9027
[24] = system: Staphylococcus aureus ATCC 6538
[25] = system: Corynebacterium xerosis C875
Escherichia coli DC2 = system: Escherichia coli DC2
Escherichia coli UB1005 = system: Escherichia coli UB1005
[26] = system: Staphylococcus epidermidis C621
[27] = system: Bacillus subtilis ATCC 6633
[28] = system: Klebsiella pneumoniae ATCC 10031
[29] = system: Micrococcus luteus ATCC 10240
[30] = system: Salmonella enterica subsp. enterica serovar Typhimurium ATCC 14028
[31] = system: Shigella dysenteriae ATCC 9752
[32] = system: Staphylococcus aureus ATCC 6538P
[33] = system: Staphylococcus aureus TK784
[34] = system: Candida albicans ATCC 37092
[35] = system: Candida tropicalis ATCC 37097
[36] = system: Staphylococcus aureus ATCC 29213

- MIC [1]: 2 µM (≈ 3.93 µg/mL)
- MIC [2]: ≥ 256 µM
- MIC [3]: 2 µM (≈ 3.93 µg/mL)
- MIC [4]: ≥ 32 µM
- MIC [5]: 4 µM (≈ 7.87 µg/mL)
- MIC [6]: 8 µM (≈ 15.7 µg/mL)
- MIC [7]: 2 µM (≈ 3.93 µg/mL)
- MIC (Staphylococcus aureus): 11.3 µM (≈ 22.2 µg/mL)
Compound: CC[C@H](C)[C@H](NC(=O)[C@H](CO)NC(=O)[C@H](CCCCN)NC(=O)[C@H](Cc1c[nH]c2ccccc12)NC(=O)[C@H](CC(C)C)NC(=O)[C@H](C)N)C(=O)N[C@@H](CC(C)C)C(=O)N[C@@H](CCCCN)C(=O)N[C@@H](CC(N)=O)C(=O)N[C@H](C(=O)NCC(=O)N[C@@H](CCCCN)C(=O)N[C@@H](C)C(=O)N[C@@H](C)C(=O)NCC(=O)N[C@@H](CCCCN)C(=O)N[C@@H](C)C(=O)N[C@H](C(=O)N[C@@H](CC(C)C)C(N)=O)C(C)C)C(C)C [ALWKSILKNVGKAAGKAVL]

- MIC [8]: 48 µM (≈ 79.2 µg/mL)
- MIC (Acinetobacter junii RT-4): 12 µM (≈ 19.8 µg/mL)
- MIC (Bacillus megaterium Bm11): 3 µM (≈ 4.95 µg/mL)
- MIC [9]: 12 µM (≈ 19.8 µg/mL)
- MIC [10]: 48 µM (≈ 79.2 µg/mL)
- MIC [11]: 48 µM (≈ 79.2 µg/mL)
- MIC (Escherichia coli D21): 24 µM (≈ 39.6 µg/mL)
- MIC [12]: ≥ 48 µM
- MIC [5]: > 48 µM
- MIC [13]: 24 µM (≈ 39.6 µg/mL)
- MIC (Saccharomyces cerevisiae): 12 µM (≈ 19.8 µg/mL)
- MIC [14]: 12 µM (≈ 19.8 µg/mL)
- MIC [15]: 24 µM (≈ 39.6 µg/mL)
- MIC [16]: 24 µM (≈ 39.6 µg/mL)
- MIC (Staphylococcus capitis 1): 12 µM (≈ 19.8 µg/mL)
- MIC [17]: 12 µM (≈ 19.8 µg/mL)
- MIC [18]: 12 µM (≈ 19.8 µg/mL)
- MIC [19]: 24 µM (≈ 39.6 µg/mL)
Compound: CC[C@H](C)[C@H](NC(=O)[C@H](CCCN=C(N)N)NC(=O)[C@@H]1CCCN1C(=O)[C@H](CC(C)C)NC(=O)[C@H](Cc1ccccc1)NC(=O)[C@H](CCCCN)NC(=O)[C@H](CO)NC(=O)[C@H](Cc1ccccc1)NC(=O)[C@H](Cc1c[nH]c2ccccc12)NC(=O)[C@@H]1CCCN1C(=O)[C@@H](NC(=O)[C@@H](N)Cc1ccccc1)C(C)C)C(=O)N[C@@H](CC(C)C)C(N)=O [FVPWFSKFLPRIL]

- MIC [20]: ≥ 351 µM
- MIC [21]: ≥ 351 µM
- MIC [22]: ≥ 351 µM
- MIC [23]: 351 µM (≈ 512 µg/mL)
- MIC [24]: > 351 µM
Compound: CC[C@H](C)[C@H](NC(=O)[C@@H](NC(=O)[C@H](CO)NC(=O)[C@H](C)NC(=O)[C@@H](NC(=O)[C@H](CCCCN)NC(=O)[C@H](CCCCN)NC(=O)[C@@H](NC(=O)[C@@H](NC(=O)[C@H](C)NC(=O)[C@H](Cc1ccccc1)NC(=O)[C@H](CC(C)C)NC(=O)CN)C(C)C)[C@@H](C)CC)C(C)C)C(C)C)C(=O)NCC(=O)NCC(=O)O [GLFAVIKKVASVIGG]

- MIC [20]: ≥ 435 µM
- MIC [21]: ≥ 870 µM
- MIC [22]: ≥ 870 µM
- MIC [23]: 870 µM (≈ 1020 µg/mL)
- MIC [24]: > 870 µM
Compound: CC[C@H](C)[C@H](NC(=O)[C@@H](NC(=O)[C@H](CC(=O)O)NC(=O)[C@H](Cc1ccccc1)NC(=O)[C@H](CC(C)C)NC(=O)CN)C(C)C)C(=O)N[C@@H](CCCCN)C(=O)N[C@@H](CCCCN)C(=O)N[C@H](C(=O)N[C@@H](C)C(=O)N[C@@H](CO)C(=O)O)C(C)C [GLFDVIKKVAS]

- MIC [25]: 16 µM (≈ 38.8 µg/mL)
- MIC (Escherichia coli DC2): ≥ 64 µM
- MIC (Escherichia coli UB1005): ≥ 64 µM
- MIC [26]: ≥ 64 µM
Compound: C[C@H](NC(=O)[C@H](C)NC(=O)[C@H](C)NC(=O)[C@H](CCCCN)NC(=O)[C@H](C)NC(=O)[C@H](C)NC(=O)[C@H](C)NC(=O)[C@H](CCCCN)NC(=O)[C@@H](N)CCCCN)C(=O)N[C@@H](C)C(=O)N[C@@H](C)C(=O)N[C@@H](CCCCN)C(=O)N[C@@H](C)C(=O)N[C@@H](C)C(=O)N[C@@H](Cc1c[nH]c2ccccc12)C(=O)N[C@@H](C)C(=O)N[C@@H](C)C(=O)N[C@@H](CCCCN)C(=O)N[C@@H](C)C(=O)N[C@@H](C)C(=O)N[C@@H](C)C(=O)N[C@@H](CCCCN)C(=O)N[C@@H](CCCCN)C(=O)N[C@@H](CCCCN)C(=O)N[C@@H](CCCCN)C(N)=O [KKAAAKAAAAAKAAWAAKAAAKKKK]

- MIC [25]: 0.5 µM (≈ 1.22 µg/mL)
- MIC (Escherichia coli DC2): ≥ 32 µM
- MIC (Escherichia coli UB1005): ≥ 32 µM
- MIC [26]: 16 µM (≈ 38.9 µg/mL)
Compound: CSCC[C@H](NC(=O)[C@H](C)NC(=O)[C@H](C)NC(=O)[C@H](C)NC(=O)[C@H](CCCCN)NC(=O)[C@@H](N)CCCCN)C(=O)N[C@@H](C)C(=O)N[C@@H](C)C(=O)N[C@@H](C)C(=O)N[C@@H](C)C(=O)N[C@@H](C)C(=O)N[C@@H](CCSC)C(=O)N[C@@H](C)C(=O)N[C@@H](C)C(=O)N[C@@H](Cc1c[nH]c2ccccc12)C(=O)N[C@@H](C)C(=O)N[C@@H](C)C(=O)N[C@@H](CCSC)C(=O)N[C@@H](C)C(=O)N[C@@H](C)C(=O)N[C@@H](C)C(=O)N[C@@H](CCCCN)C(=O)N[C@@H](CCCCN)C(=O)N[C@@H](CCCCN)C(=O)N[C@@H](CCCCN)C(N)=O [KKAAAMAAAAAMAAWAAMAAAKKKK]

- MIC [27]: 1.07 µM (≈ 1.3 µg/mL)
- MIC [11]: 4.12 µM (≈ 5 µg/mL)
- MIC [28]: 4.12 µM (≈ 5 µg/mL)
- MIC [29]: 2.06 µM (≈ 2.5 µg/mL)
- MIC [5]: 8.25 µM (≈ 9.99 µg/mL)
- MIC [30]: 8.25 µM (≈ 9.99 µg/mL)
- MIC [31]: 2.06 µM (≈ 2.5 µg/mL)
- MIC [32]: 1.07 µM (≈ 1.3 µg/mL)
- MIC [33]: 2.06 µM (≈ 2.5 µg/mL)
- MIC [17]: 1.07 µM (≈ 1.3 µg/mL)
Compound: CC(C)C[C@H](NC(=O)[C@H](CC(C)C)NC(=O)[C@H](Cc1c[nH]c2ccccc12)NC(=O)[C@H](CCCCN)NC(=O)[C@H](CC(C)C)NC(=O)[C@H](CC(C)C)NC(=O)[C@H](Cc1c[nH]c2ccccc12)NC(=O)[C@H](CCCCN)NC(=O)[C@@H](N)CC(C)C)C(N)=O [LKWLLKWLL]

- MIC [34]: 10 µM and 6.4 µM
- MIC [35]: 1.3 µM and 1.8 µM
- MIC [10]: 4.7 µM and 10.2 µM
- MIC [11]: 6.1 µM and 10.2 µM
- MIC [36]: 4.5 µM and 10.2 µM
Compound: CC(C)C[C@H](NC(=O)[C@@H](N)CCCN=C(N)N)C(=O)N[C@@H](Cc1ccc(O)cc1)C(=O)N[C@@H](CCCN=C(N)N)C(N)=O [RLYR]
